SMILES strings stand for the structures.

T1 sequence (P48729 whole entry): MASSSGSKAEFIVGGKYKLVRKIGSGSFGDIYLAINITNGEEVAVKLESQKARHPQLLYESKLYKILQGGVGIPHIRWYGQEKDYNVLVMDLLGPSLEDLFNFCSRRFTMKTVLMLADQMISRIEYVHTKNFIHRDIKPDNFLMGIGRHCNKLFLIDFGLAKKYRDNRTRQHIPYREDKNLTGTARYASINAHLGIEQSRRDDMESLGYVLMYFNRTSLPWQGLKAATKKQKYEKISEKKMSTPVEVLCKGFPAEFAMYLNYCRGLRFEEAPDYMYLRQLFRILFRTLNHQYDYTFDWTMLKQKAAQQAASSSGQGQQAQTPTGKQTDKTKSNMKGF
T1 sequence (Q96SW2 whole entry, further chain): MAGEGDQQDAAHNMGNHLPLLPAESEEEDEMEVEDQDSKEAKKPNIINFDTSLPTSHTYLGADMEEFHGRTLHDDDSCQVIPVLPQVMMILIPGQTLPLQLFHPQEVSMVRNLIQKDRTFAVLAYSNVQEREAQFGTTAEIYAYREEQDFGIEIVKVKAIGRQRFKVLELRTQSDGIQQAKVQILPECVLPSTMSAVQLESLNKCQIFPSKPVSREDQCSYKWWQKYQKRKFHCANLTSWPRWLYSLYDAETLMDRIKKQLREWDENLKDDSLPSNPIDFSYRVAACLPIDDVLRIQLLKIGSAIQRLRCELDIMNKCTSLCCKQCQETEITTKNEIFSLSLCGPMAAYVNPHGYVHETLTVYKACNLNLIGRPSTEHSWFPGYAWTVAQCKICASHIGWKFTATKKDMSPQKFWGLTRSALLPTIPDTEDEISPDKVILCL
T1 sequence (Q16531 2-1140 partner limits assumed): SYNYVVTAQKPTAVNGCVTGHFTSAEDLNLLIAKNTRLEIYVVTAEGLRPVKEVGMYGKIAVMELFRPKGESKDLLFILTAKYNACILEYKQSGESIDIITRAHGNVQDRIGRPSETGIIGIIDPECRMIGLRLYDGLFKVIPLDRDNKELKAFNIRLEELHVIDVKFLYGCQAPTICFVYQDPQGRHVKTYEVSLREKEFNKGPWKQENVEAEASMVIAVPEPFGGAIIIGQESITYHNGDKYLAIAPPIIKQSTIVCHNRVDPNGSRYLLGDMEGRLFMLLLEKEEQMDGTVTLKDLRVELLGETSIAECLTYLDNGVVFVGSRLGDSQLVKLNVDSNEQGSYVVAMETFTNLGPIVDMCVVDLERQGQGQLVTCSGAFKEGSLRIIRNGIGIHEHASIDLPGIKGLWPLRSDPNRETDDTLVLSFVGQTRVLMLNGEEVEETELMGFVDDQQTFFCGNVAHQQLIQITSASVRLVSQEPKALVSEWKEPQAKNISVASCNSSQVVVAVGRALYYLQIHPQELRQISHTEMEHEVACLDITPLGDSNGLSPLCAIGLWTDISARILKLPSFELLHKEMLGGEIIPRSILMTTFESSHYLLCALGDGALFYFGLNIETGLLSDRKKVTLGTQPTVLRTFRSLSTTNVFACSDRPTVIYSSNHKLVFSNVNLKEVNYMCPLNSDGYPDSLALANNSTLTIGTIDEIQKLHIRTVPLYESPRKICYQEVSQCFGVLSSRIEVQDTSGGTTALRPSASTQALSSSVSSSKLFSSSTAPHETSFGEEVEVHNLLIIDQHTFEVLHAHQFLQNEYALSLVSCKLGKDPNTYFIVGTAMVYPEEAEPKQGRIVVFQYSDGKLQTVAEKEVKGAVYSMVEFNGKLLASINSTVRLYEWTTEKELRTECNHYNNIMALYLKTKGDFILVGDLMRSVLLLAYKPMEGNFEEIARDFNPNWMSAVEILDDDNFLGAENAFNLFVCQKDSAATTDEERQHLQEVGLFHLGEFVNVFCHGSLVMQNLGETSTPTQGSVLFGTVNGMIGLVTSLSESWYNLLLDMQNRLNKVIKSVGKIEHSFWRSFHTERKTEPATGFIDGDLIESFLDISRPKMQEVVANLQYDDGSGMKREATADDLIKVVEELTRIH

This assay has as its target T1, CK1α (Homo sapiens, UniProt P48729).
T1 construct: HEK293 clonal lines with CRISPR KI HiBiT tag on CSNK1A1
Kind of assay: CK1α NanoBit Assay (HiBiT-tagged CSNK1A1, HEK293 clonal lines). The format is cell-based. The conditions noted are these: HEK293 HiBiT-CSNK1A1/LgBiT cells, 24 h incubation. How it is done: HEK293 clonal lines with CRISPR KI HiBiT tag on CSNK1A1 and stably expressing LgBiT protein were obtained from Promega (Madison, WI). […] Cells were incubated at 37° C., 5% CO2 for 24 hours and then signal was read on a Pherastar FSX using “LUM plus” optic module.
Data analysis was performed in Scinamic (Scinamic, Cambridge, MA). Luminescence response (R) was calculated by the formula: response=100*(S−N)/(P−N) where S is the signal of the well, N and P the mean negative and positive control values respectively of the same plate.
DC50 data are reported in Table 2 for compounds in Table 1. In Table 2 below, According to the code, A represents a DC50 value of ≤0.1 μM, B represents a DC50 value>0.1 μM and ≤1 μM, C represents an DC50 value>1 μM.
In general terms: The HiBiT peptide binds its large partner to form an active luciferase.
The compound `O=C1CCC(N2Cc3cc(NC(=O)N4Cc5ccccc5C(C(F)(F)F)C4)ccc3C2=O)C(=O)N1` (stereo not drawn) [Compound 196] showed a DC50 of less than 0.1 µM.
The figure for `C[C@@H]1CCN(C(=O)Nc2ccc3c(c2)CN(C2CCC(=O)NC2=O)C3=O)[C@H](C)C1` (stereo partly drawn) [Compound 275] is more than 1 µM; for `O=C1CCC(N2Cc3cc(NC(=O)N4Cc5ccccc5C(n5cccn5)C4)ccc3C2=O)C(=O)N1` (stereo not drawn) [Compound 206] it is 0.1 to 1 µM.
As to `CC1CCCCN1C(=O)Nc1ccc2c(c1)CN(C1CCC(=O)NC1=O)C2=O` (stereo not drawn) [Compound 282], the DC50 is 0.1 to 1 µM.
The value for `O=C1CCC(N2Cc3cc(NC(=O)N4CCC(c5cnccn5)C4)ccc3C2=O)C(=O)N1` (stereo not drawn) [Compound 223] was more than 1 µM.
The value for `O=C1CCC(N2Cc3cc(NC(=O)N4CCN(C56CC(C5)C6)CC4)ccc3C2=O)C(=O)N1` (stereo not drawn) [Compound 234] was more than 1 µM.
The value for `O=C1CCC(N2Cc3cc(NC(=O)N4Cc5ccncc5C4)ccc3C2=O)C(=O)N1` (stereo not drawn) [Compound 144] was 0.1 to 1 µM.
In turn, `O=C1CCC(N2Cc3cc(NC(=O)N4CCC(O)CC4)ccc3C2=O)C(=O)N1` (stereo not drawn) [Compound 251] displayed a DC50 of more than 1 µM.
Turning to `O=C1CCC(N2Cc3cc(NC(=O)N4CCc5ccncc5C4)ccc3C2=O)C(=O)N1` (stereo not drawn) [Compound 151], the DC50 was more than 1 µM.
Turning to `O=C1CCC(N2Cc3cc(NC(=O)N4CCC(C(F)(F)F)c5ccccc54)ccc3C2=O)C(=O)N1` (stereo not drawn) [Compound 127], the DC50 was less than 0.1 µM.
The value for `Cn1nccc1C1CCCN(C(=O)Nc2ccc3c(c2)CN(C2CCC(=O)NC2=O)C3=O)C1` (stereo not drawn) [Compound 250] was more than 1 µM; that for `CC1(c2ccccc2F)CN(C(=O)Nc2ccc3c(c2)CN(C2CCC(=O)NC2=O)C3=O)C1` (stereo not drawn) [Compound 258] was 0.1 to 1 µM; that for `O=C1CCC(N2Cc3cc(NC(=O)N4CCCc5c4cccc5C(F)(F)F)ccc3C2=O)C(=O)N1` (stereo not drawn) [Compound 160] was 0.1 to 1 µM.
The compound `CC1(C)CN(C(=O)Nc2ccc3c(c2)CN(C2CCC(=O)NC2=O)C3=O)Cc2ccccc21` (stereo not drawn) [Compound 200] came in with a DC50 of less than 0.1 µM.
The value for `O=C1CCC(N2Cc3cc(NC(=O)N4CCN(c5ccncn5)CC4)ccc3C2=O)C(=O)N1` (stereo not drawn) [Compound 266] was more than 1 µM.
The figure for `O=C1CCC(N2Cc3cc(NC(=O)N4Cc5ccc(Cl)cc5C4)ccc3C2=O)C(=O)N1` (stereo not drawn) [Compound 177] is less than 0.1 µM; for `CC(C)C1(c2ccccc2)CN(C(=O)Nc2ccc3c(c2)CN(C2CCC(=O)NC2=O)C3=O)C1` (stereo not drawn) [Compound 233] it is 0.1 to 1 µM; for `O=C1CCC(N2Cc3cc(NC(=O)N4CCc5ccccc5C4)ccc3C2=O)C(=O)N1` (stereo not drawn) [Compound 104, N-(2-(2,6-dioxopiperidin-3-yl)-1-oxoisoindolin-5-yl)-3,4-dihydroisoquinoline-2(1H)-carboxamide] it is less than 0.1 µM.
The value for `O=C1CCC(N2Cc3cc(NC(=O)N4CCCC4c4ccccc4)ccc3C2=O)C(=O)N1` (stereo not drawn) [Compound 264] was less than 0.1 µM; that for `O=C1CCC(N2Cc3cc(NC(=O)N4CCN(c5ncccn5)CC4)ccc3C2=O)C(=O)N1` (stereo not drawn) [Compound 272] was 0.1 to 1 µM; that for `O=C1CCC(N2Cc3cc(NC(=O)N4CCCC5(CCC5)C4)ccc3C2=O)C(=O)N1` (stereo not drawn) [Compound 255] was less than 0.1 µM.
Compound `CC1Cc2ccccc2N(C(=O)Nc2ccc3c(c2)CN(C2CCC(=O)NC2=O)C3=O)C1` (stereo not drawn) [Compound 153] came in with a DC50 of less than 0.1 µM.
The value for `O=C1CCC(N2Cc3cc(NC(=O)N4CCC(c5ccccc5)C4)ccc3C2=O)C(=O)N1` (stereo not drawn) [Compound 260] was less than 0.1 µM.
The figure for `CC1(c2ccccc2)CCCN(C(=O)Nc2ccc3c(c2)CN(C2CCC(=O)NC2=O)C3=O)C1` (stereo not drawn) [Compound 259] is 0.1 to 1 µM.
The value for `O=C1CCC(N2Cc3cc(NC(=O)N4Cc5ccccc5C5(CC5)C4)ccc3C2=O)C(=O)N1` (stereo not drawn) [Compound 136] was less than 0.1 µM.
`N#Cc1cccc2c1CN(C(=O)Nc1ccc3c(c1)CN(C1CCC(=O)NC1=O)C3=O)C2` (stereo not drawn) [Compound 213] returned a DC50 of 0.1 to 1 µM.
The value for `N#Cc1cccc2c1CCCN2C(=O)Nc1ccc2c(c1)CN(C1CCC(=O)NC1=O)C2=O` (stereo not drawn) [Compound 126] was more than 1 µM.
The figure for `N#Cc1cccc2c1CCN(C(=O)Nc1ccc3c(c1)CN(C1CCC(=O)NC1=O)C3=O)C2` (stereo not drawn) [Compound 176] is 0.1 to 1 µM.
The value for `C[C@H]1c2ccccc2CN1C(=O)Nc1ccc2c(c1)CN(C1CCC(=O)NC1=O)C2=O` (stereo partly drawn) [Compound 167] was less than 0.1 µM; that for `O=C1CCC(N2Cc3cc(NC(=O)N4CC5[C@@H](CCN5c5ccccc5)C4)ccc3C2=O)C(=O)N1` (stereo partly drawn) [Compound 236] was 0.1 to 1 µM.
Compound `O=C1CCC(N2Cc3cc(NC(=O)N4CCN(c5cnccn5)CC4)ccc3C2=O)C(=O)N1` (stereo not drawn) [Compound 254] had a DC50 of more than 1 µM.
The value for `CC(C)c1cccc2c1N(C(=O)Nc1ccc3c(c1)CN(C1CCC(=O)NC1=O)C3=O)CCC2` (stereo not drawn) [Compound 155] was 0.1 to 1 µM; that for `O=C1CCC(N2Cc3cc(NC(=O)N4C[C@H](c5ccccc5)[C@H]4CO)ccc3C2=O)C(=O)N1` (stereo partly drawn) [Compound 245] was 0.1 to 1 µM; that for `O=C1CCC(N2Cc3cc(NC(=O)N4CCc5cnccc54)ccc3C2=O)C(=O)N1` (stereo not drawn) [Compound 110, N-(2-(2,6-dioxopiperidin-3-yl)-1-oxoisoindolin-5-yl)-2,3-dihydro-1H-pyrrolo[3,2-c]pyridine-1-carboxamide] was 0.1 to 1 µM.
The figure for `CCC1(c2ccccc2)CN(C(=O)Nc2ccc3c(c2)CN(C2CCC(=O)NC2=O)C3=O)C1` (stereo not drawn) [Compound 252] is 0.1 to 1 µM; for `N#Cc1ccc2c(c1)CN(C(=O)Nc1ccc3c(c1)CN(C1CCC(=O)NC1=O)C3=O)C2` (stereo not drawn) [Compound 133] it is less than 0.1 µM; for `O=C1CCC(N2Cc3cc(NC(=O)N4CC(c5ccc(Cl)cc5)C4)ccc3C2=O)C(=O)N1` (stereo not drawn) [Compound 231] it is less than 0.1 µM.
The value for `O=C1CCC(N2Cc3cc(NC(=O)N4CC(c5ccc(F)cc5)C4)ccc3C2=O)C(=O)N1` (stereo not drawn) [Compound 269] was less than 0.1 µM.
`C[C@@H]1c2ccccc2CN1C(=O)Nc1ccc2c(c1)CN(C1CCC(=O)NC1=O)C2=O` (stereo partly drawn) [Compound 170] displayed a DC50 of less than 0.1 µM.
For the compound `O=C1CCC(N2Cc3cc(NC(=O)N4CCCCC4C(F)(F)F)ccc3C2=O)C(=O)N1` (stereo not drawn) [Compound 219], the DC50 was less than 0.1 µM.
Regarding `O=C1CCC(N2Cc3cc(NC(=O)N4CCCc5ccc(C(F)F)cc54)ccc3C2=O)C(=O)N1` (stereo not drawn) [Compound 129], the DC50 is less than 0.1 µM.
The figure for `CC1Cc2ccccc2N1C(=O)Nc1ccc2c(c1)CN(C1CCC(=O)NC1=O)C2=O` (stereo not drawn) [Compound 138] is less than 0.1 µM.
The compound `O=C1CCC(N2Cc3cc(NC(=O)N4CCC5CC54)ccc3C2=O)C(=O)N1` (stereo not drawn) [Compound 221] gave a DC50 of 0.1 to 1 µM.
The figure for `CC1Cc2ccccc2C(C)N1C(=O)Nc1ccc2c(c1)CN(C1CCC(=O)NC1=O)C2=O` (stereo not drawn) [Compound 166] is less than 0.1 µM; for `O=C1CCC(N2Cc3cc(NC(=O)N4CC5CC5c5cc(Br)ccc54)ccc3C2=O)C(=O)N1` (stereo not drawn) [Compound 173] it is less than 0.1 µM; for `CC1CCc2ccccc2N1C(=O)Nc1ccc2c(c1)CN(C1CCC(=O)NC1=O)C2=O` (stereo not drawn) [Compound 120] it is 0.1 to 1 µM.
The value for `O=C1CCC(N2Cc3cc(NC(=O)N4CCCc5cc(F)ccc54)ccc3C2=O)C(=O)N1` (stereo not drawn) [Compound 141] was less than 0.1 µM; that for `O=C1CCC(N2Cc3cc(NC(=O)N4CCC5(CCC5)C4)ccc3C2=O)C(=O)N1` (stereo not drawn) [Compound 278] was less than 0.1 µM.
The value for `O=C1CC[C@H](N2Cc3cc(NC(=O)N4c5ccccc5C[C@H]4C(F)(F)F)ccc3C2=O)C(=O)N1` (single isomer, unassigned) [Compound 361] was less than 0.1 µM; that for `CC(C)(C)C1Cc2ccccc2N(C(=O)Nc2ccc3c(c2)CN(C2CCC(=O)NC2=O)C3=O)C1` (stereo not drawn) [Compound 154] was less than 0.1 µM.
Turning to `O=C1CCC(N2Cc3cc(NC(=O)N4CCCc5ncccc54)ccc3C2=O)C(=O)N1` (stereo not drawn) [Compound 145], the DC50 was more than 1 µM.
The value for `CC(C)[C@]12C[C@H]1CN(C(=O)Nc1ccc3c(c1)CN(C1CCC(=O)NC1=O)C3=O)C2` (stereo partly drawn) [Compound 235] was less than 0.1 µM.
The value for `C[C@@H]1C[C@H](C)c2ccccc2N1C(=O)Nc1ccc2c(c1)CN(C1CCC(=O)NC1=O)C2=O` (stereo partly drawn) [Compound 128] was 0.1 to 1 µM.
The value for `Cn1cc(C2CCN(C(=O)Nc3ccc4c(c3)CN(C3CCC(=O)NC3=O)C4=O)C2)cn1` (stereo not drawn) [Compound 222] was more than 1 µM; that for `O=C1CCC(N2Cc3cc(NC(=O)N4CCCC4c4ccccn4)ccc3C2=O)C(=O)N1` (stereo not drawn) [Compound 270] was 0.1 to 1 µM.
As for `O=C1CCC(N2Cc3cc(NC(=O)N4CCc5cnccc5C4)ccc3C2=O)C(=O)N1` (stereo not drawn) [Compound 207], the DC50 is more than 1 µM.
`O=C1CCC(N2Cc3cc(NC(=O)N4CCCc5cccc(F)c54)ccc3C2=O)C(=O)N1` (stereo not drawn) [Compound 157] yielded a DC50 of 0.1 to 1 µM.
The value for `O=C1CCC(N2Cc3cc(NC(=O)N4Cc5ccccc5C(F)(F)C4)ccc3C2=O)C(=O)N1` (stereo not drawn) [Compound 204] was less than 0.1 µM; that for `O=C1CCC(N2Cc3cc(NC(=O)N4CCc5ccccc5C4c4ccccc4)ccc3C2=O)C(=O)N1` (stereo not drawn) [Compound 211] was less than 0.1 µM; that for `O=C1CCC(N2Cc3cc(NC(=O)N4CCc5cc(F)ccc5C4)ccc3C2=O)C(=O)N1` (stereo not drawn) [Compound 193] was less than 0.1 µM.
The figure for `CCC1c2ccccc2CN1C(=O)Nc1ccc2c(c1)CN(C1CCC(=O)NC1=O)C2=O` (stereo not drawn) [Compound 208] is less than 0.1 µM; for `O=C1CCC(N2Cc3cc(NC(=O)N4Cc5ccc(C(F)F)cc5C4)ccc3C2=O)C(=O)N1` (stereo not drawn) [Compound 168] it is less than 0.1 µM.
The figure for `O=C1CCC(N2Cc3cc(NC(=O)N4CCCc5cccc(OC(F)F)c54)ccc3C2=O)C(=O)N1` (stereo not drawn) [Compound 159] is 0.1 to 1 µM.

Values taken from US20250171420A1 (Monte Rosa Therapeutics, Inc., priority 2022, published 2025).
